Laboratory results taken from article PMC8667925, “New 1,2,4-oxadiazole derivatives with positive mGlu4 receptor modulation activity and antipsychotic-like properties” (Journal of Enzyme Inhibition and Medicinal Chemistry, 2021).
Where two headings read alike, the source gives them in different places.

Experiments:
[1] = target: T1, CYP2C19 (Homo sapiens, UniProt P33261); assay: inhibition of cytochrome P450 isoform activity (fluorescence screening); assay type: biochemical; settings: screening at 1.1, 3.3 and 10 µM
T1 construct: purchased Corning
T1 sequence (P33261 whole entry, canonical isoform): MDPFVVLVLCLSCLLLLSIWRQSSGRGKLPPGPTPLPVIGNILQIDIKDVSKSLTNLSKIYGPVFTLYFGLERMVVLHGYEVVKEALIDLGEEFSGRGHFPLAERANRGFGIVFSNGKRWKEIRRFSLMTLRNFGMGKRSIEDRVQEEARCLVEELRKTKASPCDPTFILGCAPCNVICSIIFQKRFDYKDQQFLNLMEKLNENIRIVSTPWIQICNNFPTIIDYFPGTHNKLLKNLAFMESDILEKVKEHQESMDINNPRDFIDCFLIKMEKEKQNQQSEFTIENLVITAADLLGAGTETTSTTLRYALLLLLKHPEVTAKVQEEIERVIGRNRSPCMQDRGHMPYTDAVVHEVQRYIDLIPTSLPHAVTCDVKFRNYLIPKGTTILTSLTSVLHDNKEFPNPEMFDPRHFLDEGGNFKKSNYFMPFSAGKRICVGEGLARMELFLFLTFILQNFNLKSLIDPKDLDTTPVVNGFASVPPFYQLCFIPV
Description: (§1) The assays for cytochrome P450 inhibition facilitate the identification of drug candidates with a lower potential for drug-drug interactions. In vitro experiments conducted to determine whether a drug inhibits a specific CYP enzyme involve an incubation of the drug with probe substrates for the CYP enzymes.
(§2) Recombinant cytochrome P450 isoforms available for the assay: CYP1A2, CYP2B6, CYP2C9, CYP2C19, CYP2D6 and CYP3A4 isoform with various probe substrates enabling fluorescence detection.
(§3) The examined compound was prepared as a 10 mM stock solution in DMSO. The following three concentrations of the test compound were used for screening determination: 1.1, 3.3 and 10 μM. […] Plates filled with solution of cofactors (NADP, G6P, MgCl2, G6PDH) as well as examined compound were scanned with a fluorescence plate reader in order to eliminate false results originating from autofluorescence of the test compounds. […] At the end of the incubation, the reaction was stopped and the fluorescence of the product was determined continuously with the specific for every product excitation as well as emission values with the use of multiwell plate scanner equipped with fluorescence measurement (Fluorescence EnSpire Multimode Plate Reader).

[2] = target: T2, CYP2C9 (Homo sapiens, UniProt P11712); assay: as above; assay type: biochemical; settings: screening at 1.1, 3.3 and 10 µM
T2 construct: purchased Corning
T2 sequence (P11712 whole entry): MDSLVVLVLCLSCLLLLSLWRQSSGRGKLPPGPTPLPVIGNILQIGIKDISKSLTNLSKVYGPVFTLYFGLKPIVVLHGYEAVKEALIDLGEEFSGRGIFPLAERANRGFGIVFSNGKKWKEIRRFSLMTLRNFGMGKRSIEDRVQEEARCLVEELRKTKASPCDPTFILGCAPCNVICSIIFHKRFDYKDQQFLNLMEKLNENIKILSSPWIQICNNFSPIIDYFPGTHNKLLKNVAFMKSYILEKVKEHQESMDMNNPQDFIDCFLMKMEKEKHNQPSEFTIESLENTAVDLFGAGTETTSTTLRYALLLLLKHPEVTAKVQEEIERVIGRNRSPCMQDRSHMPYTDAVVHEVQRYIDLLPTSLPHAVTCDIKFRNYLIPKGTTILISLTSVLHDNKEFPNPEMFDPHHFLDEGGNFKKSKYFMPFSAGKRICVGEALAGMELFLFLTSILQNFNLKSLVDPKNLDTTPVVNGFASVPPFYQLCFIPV
Description: as §1, §2, §3

[3] = pharmacokinetic study, plasma and brain, after i.p. administration; assay type: in vivo, mice (male Albino Swiss); settings: mouse, 10 mg/kg i.p.; for AUC / Cmax / half-life / Tmax: male, Albino Swiss, ip; for AUC: read-out: AUC (area under the curve); for Cmax: read-out: Cmax (maximum concentration); for half-life: read-out: T1/2 (terminal elimination half-life) (converted)
Description: The pharmacokinetic properties and brain uptake of 52 were further determined in mice after i.p. administration. The compound was administered at a dose of 10 mg/kg in 3% DMSO + 20% Captisol in water. The concentration of 52 was monitored in the plasma and the brain at six time points over 6 h (Figure 5).
The method described below was successfully applied to a pharmacokinetic study of 52 in mice (male Albino Swiss) after i.p. injection. Compound 52 was administered to mice at a dose of 10 mg/kg i.p. At 0.25, 0.50, 1.0, 2.0, 4.0, and 6.0 h (three animals were used for one time point) the mice were anaesthetised by the use of Morbital (Biowet, Puławy, Poland), and the blood was collected from the portal vein to tubes containing 5% EDTA. The mice were then perfused with 0.1 M PBS to remove remaining blood from the body, and the brains were taken out for the analysis. Blood was centrifuged at 2000 rpm for 10 min at 4 °C, and the plasma was collected and frozen at −80 °C for further analysis. Plasma and tissue samples from all drug-treated animals were thawed at room temperature prior to use. Standard protocol of sample preparation: 200 µL of acetonitrile was added to the Eppendorf tubes with 50 µL of studied plasma samples or tissue homogenate. Samples were mixed for 5 min on a mixer at 25 °C and 1400 rpm. Tubes were then centrifuged at 2000 × g for 15 min at 4 °C. A total of 180 µL of each supernatant was transferred to a plate well. Finally, each sample was injected onto the LC-MS column. Calibration curve serial dilution method: Plasma was spiked with a standard at different concentrations. Acetonitrile was added. After mixing and centrifugation, the supernatant was collected.
Plasma and tissue samples from all drug-treated animals at selected time points were analysed using a previously developed non-validated LC-MS/MS method. […] LC-MS analysis was carried out on a Bruker amaZon SL mass spectrometer using positive/negative ion ESI mode. Chromatographic separation was achieved on an Ascentis Express C18 column (5 cm × 2.1 mm, […], Supelco Technologies) at room temperature with a thermostatted column oven. A gradient elution of eluents A (acetonitrile (LiChrosolv, Reag. Ph Eur) + 0.1% formic acid (Sigma Aldrich, 98–100%)) and B (water +0.1% formic acid) was used for separation. The flow rate was set at 1 ml/min. The injection volume was 20 µL, and the time of injection was 4 min.

SMILES: O=C(Nc1ccc(-c2noc(-c3ccccc3Cl)n2)c(Cl)c1)c1ccccn1 [Compound 52, N-(3-chloro-4-(5-(2-chlorophenyl)-1,2,4-oxadiazol-3-yl)phenyl)picolinamide]
- IC50 [1]: 3.3 to 10 µM
- IC50 [2]: 3.3 to 10 µM
- maximum brain concentration ([3]; brain): 949.76 ng/mL
- AUC ([3]; brain): 5.64 µM·h
- Cmax ([3]; brain): 2120 nM
- half-life ([3]; brain): 136 min
- Tmax ([3]; brain, read-out: Tmax (converted)): 30 min
- AUC ([3]; plasma): 0.37 µM·h
- Cmax ([3]; plasma): 540 nM
- half-life ([3]; plasma): 66 min
- Tmax ([3]; plasma, read-out: Tmax (time at maximum observed concentration)): 15 min
- maximum plasma concentration ([3]; plasma): 243.22 ng/mL
